According to patent US11512085B2, “Heteroaryl compound having drug activity” (SHANGHAI DUDE MEDICAL TECHNOLOGY CO., LTD, priority 2017, dated 2022):
Read-outs that look alike come from different tables or passages of the source.

Legend:
hERG channel = hERG channel (Homo sapiens, UniProt Q12809); assay: hERG current blocking test (whole-cell patch clamp)
OCI-LY19 = assay: In vitro tumor cell proliferation (CellTiter-Glo), OCI-LY19; format: cell-based; conditions: Homo sapiens, OCI-LY19, 72 h; read-out: Growth IC50
Description: (§1) Biological Embodiment 8: Study on Effects of Active Compounds for Inhibiting In Vitro Tumor Cell Proliferation
(§2) Promega CellTiter-Glo cell activity detection kit by luminescence (Promega-G7573).
(§3) Tumor cell lines were cultured in a 5% of CO2 incubator at 37° C. according to respective culture conditions; and periodic passage was performed, and cells positioned in a logarithmic phase were taken for planking.
(§4) 3) 90 μL of cell suspension was added into each well of the culture plate, and a culture solution containing no cell was added into blank control;
(§5) 4) the culture plate was cultured overnight in the 5% of CO2 incubator having relative humidity of 100% at 37° C.
(§6) Preparation of a 400× compound storage plate: the compound was diluted from the maximum concentration gradient to the lowest concentration with DMSO. […]
(§7) The following steps were performed according to the specification of the Promega CellTiter-Glo cell activity detection kit by luminescence (Promega-G7573). […]
(§8) 9) the luminescence signal was detected on the 2104 EnVision plate reader.

p-Erk/t-Erk = assay: Western blotting of p-Erk/t-Erk in anti-IgG stimulated DOHH2 cells; format: cell-based; conditions: DOHH2 cells, 5, 100, 2000 nM, 1 h, anti-IgG stimulation
Description: Biological Embodiment 4: Analysis of Influences of Test Compounds on p-Btk/t-Btk, p-PLCγ/t-PLCγ and p-Erk/t-Erk Expression Levels of DOHH2 Cells by Virtue of Western Blotting
1) DOHH2 cells on a logarithmic phase were collected;
2) a cell concentration was adjusted to a needed concentration;
3) 2 ml of cell suspension was added into a 6-well plate for performing culture, three different concentrations, that is, 5 nM, 100 nM and 2000 nM, of test samples were respectively set, and each concentration was repeated once;
4) test samples were added into plate wells, and DMSO served as control, wherein a final concentration of the DMSO was 0.1%;
5) culture was performed for 1 h; and […]
6. protein extraction and quantification […]
5) a protein concentration was determined by using Pierce™ BCA Protein Assay Kit; and
6) according to BCA protein quantification results, all samples were diluted to the same final concentration by adding 4×LDS sample buffer and 10× sample reducing agent into the RIPA buffer solution, and the solution was heated at 100° C. for 10 min. […]
10) chemiluminiscence was detected by Tanon 5200 multi.
7. Quantification of strip intensity
Intensity of each strip was quantified by using Image quant densitometry software. […]

DOHH-2 = assay: In vitro tumor cell proliferation (CellTiter-Glo), DOHH-2; format: cell-based; conditions: Homo sapiens, DOHH-2, 72 h; read-out: Growth IC50
Description: as §1, §2, §3, §4, §5, §6, §7, §8

[1] = Pharmacokinetic study, single intravenous and oral dose, SD rats; format: in vivo; conditions: male, blood; for AUC(0-t) / Cmax / Tmax / half-life: Rat; for half-life: read-out: T½ (converted)
Description: Biological Embodiment 7: Pharmacokinetic Study of Performing Respective Single Intravenous and Oral Dose Delivery with Test Samples on SD Rats and Beagle Dogs
6 male SD rats were selected, and grouped and administered according to an experimental design table; 3 animals in the first group were intravenously administered once on the day of administration, wherein the administration dosage was 2 mg/kg, and the administration volume was 5 mL/kg; 3 animals in the second group were orally intragastrically administered once on the day of administration, wherein the administration dosage was 10 mg/kg, and the administration volume was 10 mL/kg.
All the animals were subjected to cage edge observation twice every day so as to determine whether the animals got ill or had injuries or death and other situations and whether supply of foods and water was sufficient. In the test process, all administered animals were subjected to detailed clinical observation before administration and at blood collection points.
Before administration (0 h) and within 0.083 h, 0.25 h, 0.5 h, 1 h, 2 h, 4 h, 6 h, 8 h and 24 h after administration, blood samples were collected from femoral veins at 10 time points so as to be used for blood concentration test.

hERG channel, sequence (Q12809 whole entry): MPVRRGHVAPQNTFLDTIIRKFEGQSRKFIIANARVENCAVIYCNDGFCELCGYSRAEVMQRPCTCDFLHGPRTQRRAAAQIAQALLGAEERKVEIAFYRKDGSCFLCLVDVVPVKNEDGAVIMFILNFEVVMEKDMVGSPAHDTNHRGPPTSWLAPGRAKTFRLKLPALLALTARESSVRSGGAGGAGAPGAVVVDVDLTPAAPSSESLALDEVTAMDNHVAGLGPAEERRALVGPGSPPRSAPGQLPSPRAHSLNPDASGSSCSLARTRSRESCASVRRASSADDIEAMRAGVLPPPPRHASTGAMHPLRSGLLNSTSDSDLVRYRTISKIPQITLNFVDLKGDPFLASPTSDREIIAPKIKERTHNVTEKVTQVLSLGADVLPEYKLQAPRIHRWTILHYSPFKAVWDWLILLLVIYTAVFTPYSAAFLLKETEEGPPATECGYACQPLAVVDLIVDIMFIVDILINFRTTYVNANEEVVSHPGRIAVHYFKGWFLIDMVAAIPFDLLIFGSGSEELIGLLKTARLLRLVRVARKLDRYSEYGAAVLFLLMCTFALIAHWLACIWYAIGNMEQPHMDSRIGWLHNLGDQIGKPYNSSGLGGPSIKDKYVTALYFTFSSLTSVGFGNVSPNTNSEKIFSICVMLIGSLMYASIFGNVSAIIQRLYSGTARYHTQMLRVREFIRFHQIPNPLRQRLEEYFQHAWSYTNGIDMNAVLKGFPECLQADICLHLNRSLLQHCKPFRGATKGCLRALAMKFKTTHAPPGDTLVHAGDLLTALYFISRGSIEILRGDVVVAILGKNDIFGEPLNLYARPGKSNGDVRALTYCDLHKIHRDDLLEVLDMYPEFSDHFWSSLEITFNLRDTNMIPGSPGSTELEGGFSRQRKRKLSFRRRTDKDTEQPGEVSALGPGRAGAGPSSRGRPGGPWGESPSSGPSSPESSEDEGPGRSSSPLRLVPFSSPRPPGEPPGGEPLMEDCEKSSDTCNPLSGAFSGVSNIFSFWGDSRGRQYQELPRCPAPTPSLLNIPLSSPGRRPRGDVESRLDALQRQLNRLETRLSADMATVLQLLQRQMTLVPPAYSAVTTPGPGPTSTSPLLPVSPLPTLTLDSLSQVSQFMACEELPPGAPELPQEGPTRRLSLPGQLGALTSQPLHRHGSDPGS

With `C=CC(=O)NN1CCCC(n2nc(-c3ccc(Oc4ccccc4)cc3)c3c(N)ncnc32)C1` (stereo not shown) [Embodiment 6, N-(3-(4-amino-3-(4-phenoxyphenyl)-1H-pyrazolo[3,4-D]pyrimidine-1-yl)-1-piperidyl)-acrylamide] the IC50 (hERG channel) was 8.06 µM, the IC50 (OCI-LY19) was 6.79 µM and the “relative level of p-Erk/t-Erk” value (p-Erk/t-Erk) was “obviously decreased”. It also gave an IC50 (DOHH-2) of less than 0.003 µM, an AUC(0-t) ([1]; IV, 2 mg/kg) of 271 ng·h/mL and a Cmax ([1]; IV, 2 mg/kg) of 658 ng/mL. It also gave a Tmax ([1]; IV, 2 mg/kg) of 4.98 min, a half-life ([1]; IV, 2 mg/kg) of 10.8 min and an AUC(0-t) ([1]; PO, 10 mg/kg) of 449 ng·h/mL. The Cmax ([1]; PO, 10 mg/kg) was 447 ng/mL, the Tmax ([1]; PO, 10 mg/kg) was 25.2 min and the half-life ([1]; PO, 10 mg/kg) was 113 min. It also gave a bioavailability ([1]; rat, oral, 10 mg/kg) of 32.2%.
